Results as given in US8563731B2, “Mesylate salt of 5-(2-{[6-(2,2-difluoro-2-phenylethoxy)hexyl]jamino}-1-hydroxyethyl)-8-hydroxyquinolin-2(1H)-one as agonist of the β2 adrenergic receptor” (Almirall, S.A., priority 2008, dated 2013).
Structures can show the parent of a compound that is named as a salt.

Experiment: Stability Test under accelerated condition (solid in amber glass vials, impurities by HPLC)
Assay type: physicochemical
Experimental: Stability of the mesylate salt of the present invention was evaluated under accelerated condition. About 5 mg of the mesylate salt of the present invention were introduced in individual 10 ml amber glass vials. These vials were stored at 40° C. during 30 days and at 80° C. during 15 and 30 days, respectively. After the forced stress conditions, samples were dissolved in 5 ml of the appropriate solvent. Impurities increase was determined using HPLC analysis and by calculating the relative areas.

O=c1ccc2c([C@@H](O)CNCCCCCCOCC(F)(F)c3ccccc3)ccc(O)c2[nH]1 [5-(2-{[6-(2,2-difluoro-2-phenylethoxy)hexyl]amino}-1(R)-hydroxy-ethyl)-8-hydroxyquinolin-2(1H)-one mesylate]
HPLC Impurities (% area) (Stability @ 40° C. 30 days): 2.4%
HPLC Impurities (% area) (Stability @ 80° C. 15 days): 3.10%
HPLC Impurities (% area) (Stability @ 80° C. 30 days): 3.8%
percentage of impurities observed (all forced conditions (40° C. 30 days, 80° C. 15 and 30 days)): less than 5%
